Test results from patent publication US9717714B2, “Spirocyclic CETP inhibitors” (Merck Sharp & Dohme Corp., priority 2012, dated 2017).
Read-outs that look alike come from different tables or passages of the source.

Molecular target: endogenous CETP from serum (Homo sapiens (Human), UniProt P11597)
Test: RTA assay in 95% human serum (CETP-catalyzed CE and TG transfer, endogenous CETP)
Assay type: biochemical
Text: In Vitro Radioactive Assays of CETP-Catalyzed CE and TG Transfer (RTA Assay)
Reagents and sources are: [3H] cholesteryl oleate (GE #TRK.886), [3H] Triolein (Perkin-Elmer NET-431), Butylated hydroxyl toluene (Aldrich, #D4740-4), DOPC (Sigma, #P6354), Sodium Bromide (Fisher scientific #S255-500), PEG 8000 (Fisher, #BP233-1), and human HDL (Intracel Corp #RP-036).
Both assays measure the transfer of [3H] cholesteryl oleate or [3H] triolein from exogenous LDL to HDL.
Radiolabeled donor particles are generated by first combining 100 μl of 200 μM butylated hydroxyl toluene in CHCl3, 216 μL of 21.57 mM DOPC in EtOH, and either 500 μCi [3H]-triolein (Perkin Elmer #NET-431) or 500 μCi [3H]-cholesteryl oleate (GE #TRK886) in a glass tube. Reagents are mixed, dried under nitrogen, and then resuspended in 2 mL of 50 mM Tris, 27 μM EDTA at pH 7.4. After a brief vortex, the solution is sonicated until clear and mixed with 20 mL of fresh human serum. The mixture is incubated overnight at 37° C. The [3H] labeled LDL substrate is separated at 1.063 g/ml density by sequential ultracentrifugal flotation in NaBr according to the method of Havel, Eder, et al., 1955, and Chapman, Goldstein, et al., 1981. Once isolated the particles are dialyzed 3× in CETP buffer (50 mM Tris, pH 7.4, 100 mM NaCl, 1 mM EDTA). Human HDL is purchased from Intracel and used as the acceptor particles.
Transfer assays are performed in a 96-well v-bottom polypropylene plate. For the RTA using recombinant CETP (2% RTA), an assay cocktail is prepared with the final concentrations 128 μg/mL HDL, 20 nM rCETP, 2% human serum, and 1×CETP buffer. 1 μL of each test compound diluted in DMSO is added to 47 μL of assay cocktail per well and incubated at 37° C. for 1 hour. To initiate the transfer reaction, 2 μL radiolabeled LDL is added. After an additional 60 min of incubation at 37° C., the transfer action is terminated by precipitation of LDL with an equal volume of 20% W/V PEG 8000. The plates are centrifuged at 2000 rpm for 30 minutes at 4° C. A 40 μL aliquot of the HDL-containing supernatant is transferred to a Packard Optiplate™ with 200 μL of MicroScint™ 20. After mixing, plates are counted by liquid scintillation. Counts present in the supernatant for blanks (wells containing only HDL acceptor, CETP buffer and DMSO) are subtracted from those containing test compounds and used to correct for non-specific transfer.
For the transfer assay using endogenous CETP from serum (95% RTA), the same procedure is used except that human serum is added such that a final concentration of serum of 95% of the total assay volume is achieved, yielding a concentration of approximately 15 nM endogenous CETP in the assay. This is then combined with HDL and CETP buffer and the reaction proceeds as above and is terminated as described.
Comparison of the counts of samples with inhibitors to an uninhibited (DMSO only) positive control yield a percent inhibition. A plot of percent inhibition vs. log of inhibitor concentration, fit to a Sigmoidal 4 parameter equation is used to calculate IC50.
Starting materials are commercially available or are made using known procedures or as shown below. The examples may be synthesized according to the general schemes provided below and through the synthetic intermediates that are described. […] When compounds of Formula I or Formula II are mentioned herein, such compounds include compounds defined generically by Formula I or II and also the specific examples disclosed herein.

[1] = 95% human serum, read-out: RTA (95% HS)
[2] = generally RTA assay in 95% human serum, read-out: IC50

Sequence of endogenous CETP from serum (P11597 18-493 limits assumed): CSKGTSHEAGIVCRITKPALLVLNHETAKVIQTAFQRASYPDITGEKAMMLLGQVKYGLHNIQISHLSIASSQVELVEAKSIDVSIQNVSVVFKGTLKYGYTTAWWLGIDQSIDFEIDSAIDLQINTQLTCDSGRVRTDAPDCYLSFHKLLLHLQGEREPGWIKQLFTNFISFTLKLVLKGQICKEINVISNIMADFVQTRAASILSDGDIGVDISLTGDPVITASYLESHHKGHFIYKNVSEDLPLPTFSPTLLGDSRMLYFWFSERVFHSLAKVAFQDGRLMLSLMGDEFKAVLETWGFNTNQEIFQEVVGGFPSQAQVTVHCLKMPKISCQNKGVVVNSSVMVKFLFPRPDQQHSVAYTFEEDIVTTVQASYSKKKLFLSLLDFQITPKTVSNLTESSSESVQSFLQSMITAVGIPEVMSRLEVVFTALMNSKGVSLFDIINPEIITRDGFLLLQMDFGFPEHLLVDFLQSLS

Structure (SMILES) | IC50 [1] [nM] | IC50 [2] [nM]
COc1ccc(-c2ccc(C(=O)O)cc2C)cc1-c1cnc(N(C)C)nc1CN1C(=O)O[C@H](c2cc(C(F)(F)F)cc(C(F)(F)F)c2)C12CC2 [Example 9, 3′-[4-({(7R)-7-[3,5-bis(trifluoromethyl)phenyl]-5-oxo-6-oxa-4-azaspiro[2.4]hept-4-yl}methyl)-2-(dimethylamino)pyrimidin-5-yl]-4′-methoxy-2-methylbiphenyl-4-carboxylic acid] | 55.5 | –
COc1cc(F)c(C(C)C)cc1-c1cnc(N(C)C)nc1CN1C(=O)OC(c2cc(C(F)(F)F)cc(C(F)(F)F)c2)C12CCC2 (centres unmarked) [Example 11, 8-[3,5-bis(trifluoromethyl)phenyl]-5-({2-(dimethylamino)-5[4-fluoro-2-methoxy-5-(1-methylethyl)phenyl]pyrimidin-4-yl}methyl)-7-oxa-5-azaspiro[3.4]octan-6-one] | – | 318
COc1ccc(-c2ccc(C(=O)O)cc2C)cc1-c1cnc(N2CC(F)C2)nc1CN1C(=O)O[C@H](c2cc(C(F)(F)F)cc(C(F)(F)F)c2)C12CC2 [Example 15, 3′-[4-({(7R)-7-[3,5-bis(trifluoromethyl)phenyl]-5-oxo-6-oxa-4-azaspiro[2.4]hept-4-yl}methyl)-2-(3-fluoroazetidin-1-yl)pyrimidin-5-yl]-4′-methoxy-2-methylbiphenyl-4-carboxylic acid] | – | 104
COc1ncc(-c2ccc(C(=O)O)cc2C)cc1-c1ccc(C(F)(F)F)nc1CN1C(=O)O[C@H](c2cc(C(F)(F)F)cc(C(F)(F)F)c2)C12CC2 [Example 4, 4-[2′-({(7R)-7-[3,5-bis(trifluoromethyl)phenyl]-5-oxo-6-oxa-4-azaspiro[2.4]hept-4-yl}methyl)-2-methoxy-6′-(trifluoromethyl)-3,3′-bipyridin-5-yl]-3-methylbenzoic acid] | – | 173
COc1ccc(-c2ccc(C(=O)O)cc2C)cc1-c1cnc(N(C)S(C)(=O)=O)nc1CN1C(=O)O[C@H](c2cc(C(F)(F)F)cc(C(F)(F)F)c2)C12CCC2 [Example 14, 3′-[4-({(8R)-8-[3,5-bis(trifluoromethyl)phenyl]-6-oxo-7-oxa-5-azaspiro[3.4]oct-5-yl}methyl)-2-[methyl (methylsulfonyl)amino]pyrimidin-5-yl}-4′-methoxy-2-methylbiphenyl-4-carboxylic acid] | – | 561
COc1ccc(-c2ccc(CO)cc2C)cc1-c1cnc(N2CC(F)C2)nc1CN1C(=O)O[C@H](c2cc(C(F)(F)F)cc(C(F)(F)F)c2)C12CCC2 [Example 7, (8R)-8-[3,5-bis(trifluoromethyl)phenyl]-5-({2-(3-fluoroazetidin-1-yl)-5-[4′-(hydroxymethyl)-4-methoxy-2′-methylbiphenyl-3-yl]pyrimidin-4-yl}methyl)-7-oxa-5-azaspiro[3.4]octan-6-one] | – | 68
COc1ccc(-c2ccc(C(=O)O)cc2C)cc1-c1ccc(C(F)(F)F)nc1CN1C(=O)O[C@H](c2cc(C(F)(F)F)cc(C(F)(F)F)c2)C12CC2 [Example 2, 3′-[2-({(7R)-7-[3,5-bis(trifluoromethyl)phenyl]-5-oxo-6-oxa-4-azaspiro[2.4]hept-4-yl}methyl)-6-(trifluoromethyl)pyridine-3-yl]-4′-methoxy-2-methylbiphenyl-4-carboxylic acid] | – | 212
COC(=O)c1ccc(-c2ccc(OC)c(-c3cnc(SC)nc3CN3C(=O)O[C@H](c4cc(C(F)(F)F)cc(C(F)(F)F)c4)C34CCC4)c2)c(C)c1 [Example 17, methyl 3′-[4-({(8R)-8-[3,5-bis(trifluoromethyl)phenyl]-6-oxo-7-oxa-5-azaspiro[3.4]oct-5-yl}methyl)-2-(methylsulfanyl)pyrimidin-5-yl]-4′-methoxy-2-methylbiphenyl-4-carboxylate] | 913 | –
COC(=O)c1ccc(-c2ccc(OC)c(-c3cnc(SC)nc3CN3C(=O)O[C@H](c4cc(C(F)(F)F)cc(C(F)(F)F)c4)C34CC4)c2)c(C)c1 [Example 18, methyl 3′-[4-({(7R)-7-[3,5-bis(trifluoromethyl)phenyl]-5-oxo-6-oxa-4-azaspiro[2.4]hept-4-yl}methyl)-2-(methylsulfanyl)pyrimidin-5-yl]-4′-methoxy-2-methylbiphenyl-4-carboxylate] | – | 596
COc1ccc([C@H]2C[C@H](CO)C2)cc1-c1ccc(C(F)(F)F)nc1CN1C(=O)O[C@H](c2cc(C(F)(F)F)cc(C(F)(F)F)c2)C12CC2 [Example 6, (7R)-7-[3,5-bis(trifluoromethyl)phenyl]-4-{[3-{5-[trans-3-(hydroxymethyl)cyclobutyl]-2-methoxyphenyl}-6-(trifluoromethyl)pyridin-2-yl]methyl}-6-oxa-4-azaspiro[2.4]heptan-5-one] | 1850 | –
COc1ccc(-c2ccc(C(=O)O)cc2C)cc1-c1cnc(N2CC(F)C2)nc1CN1C(=O)O[C@H](c2cc(C(F)(F)F)cc(C(F)(F)F)c2)C12CCC2 [Example 12, 3′-[4-({(8R)-8-[3,5-bis(trifluoromethyl)phenyl]-6-oxo-7-oxa-5-azaspiro[3.4]oct-5-yl}methyl)-2-(3-fluoroazetidin-1-yl)pyrimidin-5-yl]-4′-methoxy-2-methylbiphenyl-4-carboxylic acid] | – | 73
COc1ccc(-c2ccc(C(=O)O)cc2C)cc1-c1cnc(N2CCOCC2)nc1CN1C(=O)O[C@H](c2cc(C(F)(F)F)cc(C(F)(F)F)c2)C12CCC2 [Example 13, 3′-[4-({(8R)-8-[3,5-bis(trifluoromethyl)phenyl]-6-oxo-7-oxa-5-azaspiro[3.4]oct-5-yl}methyl)-2-morpholin-4-ylpyrimidin-5-yl]-4′-methoxy-2-methylbiphenyl-4-carboxylic acid] | – | 242
COc1cc(F)c(-c2ccc(C(=O)O)cc2C)cc1-c1ccc(C(F)(F)F)nc1CN1C(=O)O[C@H](c2cc(C(F)(F)F)cc(C(F)(F)F)c2)C12CC2 [Example 3, 5′-[2-({(7R)-7-[3,5-bis(trifluoromethyl)phenyl]-5-oxo-6-oxa-4-azaspiro[2.4]hept-4-yl}methyl)-6-(trifluoromethyl)pyridin-3-yl]-2′-fluoro-4′-methoxy-2-methylbiphenyl-4-carboxylic acid] | – | 119
COc1ccc(CCC(=O)O)cc1-c1ccc(C(F)(F)F)nc1CN1C(=O)O[C@H](c2cc(C(F)(F)F)cc(C(F)(F)F)c2)C12CC2 [Example 5, 3-{3-[2-({(7R)-7-[3,5-bis(trifluoromethyl)phenyl]-5-oxo-6-oxa-4-azaspiro[2.4]hept-4-yl}methyl)-6-(trifluoromethyl)pyridin-3-yl]-4-methoxyphenyl}propanoic acid] | – | 3360
COc1ccc(-c2ccc(C(=O)O)cc2C)cc1-c1cnc(N2CCOCC2)nc1CN1C(=O)O[C@H](c2cc(C(F)(F)F)cc(C(F)(F)F)c2)C12CC2 [Example 16, 3′-[4-({(7R)-7-[3,5-bis(trifluoromethyl)phenyl]-5-oxo-6-oxa-4-azaspiro[2.4]hept-4-yl}methyl)-2-morpholin-4-ylpyrimidin-5-yl]-4′-methoxy-2-methylbiphenyl-4-carboxylic acid] | – | 272
COc1cc(F)c(C(C)C)cc1-c1cnc(N(C)C)nc1CN1C(=O)OC(c2cc(C(F)(F)F)cc(C(F)(F)F)c2)C12CC2 (centres unmarked) [Example 10, 7-[3,5-bis(trifluoromethyl)phenyl]-4-({2-(dimethylamino)-5-[4-fluoro-2-methoxy-5-(1-methylethyl)phenyl]pyrimidin-4-yl}methyl)-6-oxa-4-azaspiro[2.4]heptan-5-one] | – | 345
COc1ccc([C@H]2C[C@H](C(=O)O)C2)cc1-c1ccc(C(F)(F)F)nc1CN1C(=O)O[C@H](c2cc(C(F)(F)F)cc(C(F)(F)F)c2)C12CC2 [Example 1, trans-3-{3-[2-({(7R)-7-[3,5-bis(trifluoromethyl)phenyl]-5-oxo-6-oxa-4-azaspiro[2.4]hept-4-yl}methyl)-6-(trifluoromethyl)pyridin-3-yl]-4-methoxyphenyl}cyclobutanecarboxylic acid] | 962 | –
